These results are taken from PubChem BioAssay AID179 (DTP/NCI, 2004).

The test system of this test is CEM cells HIV-1 protection, formazan growth assay. The experiment in a line: NCI AIDS Antiviral Assay. The following applies: for IC50: measured here: growth of uninfected CEM cells. The essentials: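 CEM (human) cells, HIV-1 infected vs uninfected, 5-point dosing, formazan growth read-out. Retest threshold 50% protection.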

Molecules are shown by their SMILES. Calls of active or inactive are those of the source.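 How the source made its calls: active means compounds giving half or more protection of infected cells from virus-caused growth loss, again on retest; inactive means the rest.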

On to `CCOC(=O)C(=O)Cc1cc(=O)n(C)c2ccccc12`, for which the EC50 was greater than 200 µM and the IC50 was 170 µM.
As to `COc1cc2c3c(c1OC)C1(C=CC(=O)C=C1)C[C@H]3N(C)CC2`, the result was inactive.
Turning to `O=Nc1ccc(O)cc1`, the EC50 was greater than 20 µM and the IC50 was 3.89 µM.
The matching figures for `O=C(O)CC[N+]1=CCC(c2ccccc2)(c2ccccc2)O1`: greater than 832 µM and greater than 832 µM.
Turning to `COc1cc2c(cc1OC)C(=O)/C(=C/c1ccc(O)cc1)CC2`, the outcome was inactive.
Take `CCOC(=O)c1c(SC)nc(-c2ccc(Cl)cc2)sc1=N`: the EC50 was greater than 200 µM and the IC50 amounted to 12 µM.
Regarding `Cc1ccc2c(c1)C1(SC(C)C(=O)N1c1ccc(Br)cc1)C(=O)N2` (stereo not given), the EC50 is greater than 200 µM and the concentration for half-maximal inhibition (IC50) was 6.31 µM.
With `Nc1ncnc2c1ncn2C(CO)OC(CO)CCP(=O)(O)O` (stereo not given), the EC50 is greater than 100 µM and the IC50 was greater than 100 µM.
Take `CCN1CCC(O)(c2ccc(Oc3ccc(F)cc3)cc2)C(C(=O)c2ccc(Oc3ccc(F)cc3)cc2)C1` (stereo not given): the EC50 was greater than 200 µM and the IC50 was found to be 9.33 µM.
The matching figures for `O=C1CC(CC(O)[C@@H]2CCCC[C@@H]2O)CC(=O)N1c1ccccc1` (stereo not given in full): greater than 200 µM and greater than 200 µM.
The matching figures for `COc1ccc(-c2c3c(nc4nc(SCC(=O)c5ccc(Br)cc5)nc(N)c24)CCCC3)cc1OC`: greater than 200 µM and 151 µM.
`Cc1noc(NS(=O)(=O)c2ccc(NC(=S)N/C=C(\C#N)C(N)=O)cc2)c1C`: the result was inactive.
Turning to `CCOC(=O)C(C)(C)Oc1ccc2c(C)c(-c3ccc(Cl)cc3)c(=O)oc2c1`, the EC50 is greater than 12.9 µM and the IC50 was greater than 12.9 µM.
On to `CCOC(=O)C1=CNc2ccccc2N=C1N`, for which the EC50 is greater than 200 µM and the IC50 is 34.7 µM.
For `O=C1Sc2ccc(Cl)cc2C(=O)N2CCSC12` (stereo not given), the EC50 was greater than 50.1 µM and the IC50 was greater than 50.1 µM.
Regarding `Nc1ccc(/C=C/c2ccc(N=Nc3ccc(/C=C/c4ccc(N)cc4S(=O)(=O)O)c(S(=O)(=O)O)c3)cc2S(=O)(=O)O)c(S(=O)(=O)O)c1`, the EC50 is 9.33 µM and the concentration for half-maximal inhibition (IC50) was 166 µM.
`COc1ccc2c(CCNC(=O)/C=C/c3ccccc3)c(C(C)=O)[nH]c2c1[N+](=O)[O-]`: the outcome was inactive.
Regarding `C=CCCCCCCCCCCCC1CCC(CC)N1` (stereo not given), the EC50 is greater than 240 µM and the concentration for half-maximal inhibition (IC50) is greater than 240 µM.
Regarding `CN(C)c1ccc(C2=C([O-])c3cc(-[n+]4ccccc4)ccc3C2=O)cc1`, the EC50 was greater than 200 µM and the half-inhibitory concentration (IC50) is 178 µM.
`Cc1ccnc(NC(=S)Nc2cccc(Cl)c2)c1`: the EC50 was 57.5 µM and the concentration for half-maximal inhibition (IC50) is greater than 200 µM.
Turning to `O=C(CC(C(=O)c1cccs1)c1ccc2c(c1)OCO2)c1ccccc1` (stereo not given), the EC50 is greater than 200 µM and the concentration for half-maximal inhibition (IC50) is greater than 200 µM.
Take `Nc1ccc(S(=O)(=O)NC(CSSCC(NS(=O)(=O)c2ccc(N)cc2)C(=O)O)C(=O)O)cc1` (stereo not given): the EC50 was greater than 200 µM and the 50% inhibitory concentration (IC50) was greater than 200 µM.
Consider `CCOC(=O)C(C)P(=O)(OC)OC` (stereo not given), for which the EC50 is greater than 200 µM and the IC50 was greater than 200 µM.
Turning to `O=C(O)c1cocc1C(=O)O`, the outcome was inactive.
Take `C/C=C(\CCCCN1C(=O)CCC1O)[Si](C)(C)C` (stereo not given): the outcome was inactive.
With `O=C1CS(=O)(=O)C(c2ccc(Cl)cc2)N1N1C(=O)CS(=O)(=O)C1c1ccc(Cl)cc1` (stereo not given), the EC50 was greater than 200 µM and the IC50 amounted to 5.75 µM.
For `COc1cc(O)c2c(c1O)C(=O)c1cc(C)ncc1C2=O`, the outcome was inactive.
Consider `NCCCN1CCN(CCCNc2ccc3nnn4c5ccccc5c(=O)c2c34)CC1`, for which the EC50 is greater than 100 µM and the IC50 was found to be 5.89 µM.
As to `N#C/C(=C\n1c(=S)[nH]c2ccc([N+](=O)[O-])cc21)c1nc2ccccc2s1`, the EC50 was greater than 200 µM and the IC50 worked out at 102 µM.
With `COC(=O)C(Cc1ccccc1)NP(=O)(O)OCC1OC(n2cc(I)c(=O)[nH]c2=O)CC1O` (stereo not given), the EC50 was greater than 200 µM and the IC50 was greater than 200 µM.
`COc1ccc(/C=C2/C(=O)N(C(=O)c3ccc(Cl)cc3)N=C2C)cc1OC`: the EC50 is greater than 35.5 µM and the 50% inhibitory concentration (IC50) is greater than 35.5 µM.
Take `C=CN(c1ccccc1)c1nc(=O)[nH]c(=O)[nH]1`: the EC50 was greater than 200 µM and the half-maximal inhibitory concentration (IC50) was greater than 200 µM.
For `Cc1coc2c1C[C@@]1(C)[C@H](CCC[C@@H]1C)[C@H]2O`, the EC50 is greater than 200 µM and the concentration for half-maximal inhibition (IC50) came to 27.5 µM.
Consider `COC1/C=C/OC2(C)Oc3c(C)c(O)c4c(O)c(c(/C=N/OC/C=C(\C)CCC=C(C)C)c(O)c4c3C2=O)NC(=O)C(C)=C/C=C/C(C)C(O)C(C)C(O)C(C)C(OC(C)=O)C1C` (stereo not given), for which the EC50 is greater than 200 µM and the half-maximal inhibitory concentration (IC50) was found to be 4.47 µM.
For `Oc1ccccc1SSc1ccccc1O`, the EC50 was greater than 200 µM and the IC50 was determined as 63.1 µM.
`COc1ccc(C(=C(C#N)C#N)c2ccc(OC)cc2)cc1`: the result was inactive.
In the case of `O=c1cc2n(c(=O)[nH]1)C1OC(C(O)C1O)[C@@H]2CCO` (stereo not given in full), the outcome was inactive.
For the molecule `CSc1nc(NC2OC(COC(C)=O)C(OC(C)=O)C(OC(C)=O)C2OC(C)=O)c(N=C(C)C(C)=O)c(=O)n1C` (stereo not given), the outcome was inactive.
As to `C=C1SC(=Nc2cccc(OC)c2)N(c2nc(Cl)nc(Cl)n2)C12CCCCC2`, the EC50 is greater than 155 µM and the IC50 turned out to be 52.5 µM.
With `COc1ccc(SS(=O)(=O)c2ccc(OC)cc2)cc1`, the EC50 is greater than 56.2 µM and the half-maximal inhibitory concentration (IC50) is 5.25 µM.
For the molecule `O=S(=O)(c1ccc(Br)cc1)n1c2ccc(Br)cc2c2nc3ccccc3nc21`, the EC50 was greater than 100 µM and the half-inhibitory concentration (IC50) is greater than 100 µM.
Take `Clc1cccc(C2N3CCCCC3[C@@H]3c4[nH]c5ccccc5c4CCN23)c1` (stereo not given in full): the EC50 was greater than 13.8 µM and the IC50 was greater than 13.8 µM.
For `Cc1cc2c(cc1Cl)SC(C(=O)c1ccc(Cl)cc1)=NS2(=O)=O`, the result was inactive.
Consider `Cc1cc(Cl)ccc1C1OC(=O)c2c1ccc1ccccc21` (stereo not given), for which the EC50 is greater than 23.4 µM and the IC50 was greater than 23.4 µM.
`CNNC1=NS(=O)(=O)c2cc(C(=O)OC)c(Cl)cc2S1`: the EC50 is greater than 200 µM and the 50% inhibitory concentration (IC50) was greater than 200 µM.
Consider `O=C(O)c1cc(O)c(O)c(O)c1`, for which the EC50 is greater than 200 µM and the IC50 turned out to be 11 µM.
For the molecule `COc1ccccc1CN1CC(C)N(N=Cc2c3c(O)c4c(O)c(C)c5c(c4c2O)C(=O)C(C)(O/C=C/C(OC)C(C)C(OC(C)=O)C(C)C(O)C(C)C(O)C(C)/C=C/C=C(\C)C(=O)N3)O5)C(C)C1` (stereo not given), the EC50 was greater than 200 µM and the concentration for half-maximal inhibition (IC50) was 7.76 µM.
For `N#CC(C#N)=Cc1cccc(Cl)c1`, the EC50 was greater than 117 µM and the 50% inhibitory concentration (IC50) was 22.4 µM.
As for `COc1cc2c(cc1OC)C13CCN4CC5CCOC6CC(=O)N2C1C6C5CC43` (stereo not given), the EC50 is greater than 200 µM and the IC50 is greater than 200 µM.
For the molecule `CCOC(=O)C1([N+](=O)[O-])[C@@H]2CCCC[C@@H]21` (stereo not given in full), the EC50 is greater than 316 µM and the IC50 was greater than 316 µM.
In the case of `O=c1c(Cl)c(Cl)cnn1CCCl`, the EC50 is greater than 1100 µM and the half-maximal inhibitory concentration (IC50) was found to be 1.29 µM.
Turning to `CCOP(=O)(CC(=O)c1cc2ccccc2[nH]1)OCC`, the EC50 was greater than 851 µM and the half-inhibitory concentration (IC50) is 437 µM.
As for `COc1ccc(CCNCCCC2c3ccccc3-c3ccccc32)cc1OC`, the EC50 is greater than 87.1 µM and the IC50 stood at 4.9 µM.
For `ON(CCc1ccccn1)CCc1ccccn1` the same measures were greater than 200 µM and greater than 200 µM.
As for `Cc1cc(C)n2c(=O)[nH]nc2c1`, the EC50 was greater than 200 µM and the half-maximal inhibitory concentration (IC50) stood at 178 µM.
Regarding `CCOC(=O)[C@H]1Nc2ccc(Cl)cc2[C@H]2CCC[C@@H]12`, the EC50 is greater than 67.6 µM and the half-inhibitory concentration (IC50) was greater than 67.6 µM.
For the molecule `Cc1cc2c(=O)c3ccc(Cl)cc3[nH]c2c(C(N)=O)c1C`, the result was inactive.
Still for that read-out and setting: the entry for `CCOC(=O)Nc1cc2nnc(-c3ccccc3)nc2c(N)n1` is “inactive”.
Consider `C=CCN1CCC(O)(c2cc(C(=O)OCC)[nH]c2-c2cc(C)no2)C1` (stereo not given), for which the EC50 was greater than 200 µM and the IC50 is greater than 200 µM.
As for `O=c1[nH]nc(Cc2ccc(Cl)cc2)n1/N=C\CC/C=N\n1c(Cc2ccc(Cl)cc2)n[nH]c1=O`, the EC50 is greater than 200 µM and the IC50 worked out at 148 µM.
On to `COC(=O)CC1(C)[C@H](O)[C@H]2OC(C)(C)O[C@H]2[C@@H]1O` (stereo not given in full), for which the EC50 is greater than 955 µM and the half-maximal inhibitory concentration (IC50) is greater than 955 µM.
As for `O=C(O)CCCCCCCCCCCC(=O)O`, the EC50 is greater than 148 µM and the IC50 is greater than 148 µM.
For the molecule `O=C(/C=C/c1cccc(F)c1)c1ccccc1`, the EC50 is greater than 31.6 µM and the IC50 was 19.1 µM.
For `CC(=O)NS(=O)(=O)c1ccc(NCc2cccc3c(=O)c4ccc(Cl)cc4oc23)cc1`, the EC50 was greater than 200 µM and the IC50 worked out at 3.16 µM.
Regarding `Cc1csc2n/c(=N/[N+](=O)[O-])sn12`, the EC50 is greater than 138 µM and the IC50 worked out at 66.1 µM.
Consider `COC(=O)c1ncc2c(=O)[nH]c3ccccc3c2c1C(=O)OC`, for which the EC50 is greater than 16.6 µM and the IC50 was greater than 16.6 µM.
`CC(C)CCC[C@@H](C)C1CCC2[C@@H]3CCC4CC(=C(c5cc(Cl)c(O)c(C(=O)O)c5)c5cc(Cl)c(O)c(C(=O)O)c5)CC[C@]4(C)C3CC[C@@]21C` (stereo not given in full): the EC50 was 47.9 µM and the half-maximal inhibitory concentration (IC50) came to 148 µM.
`CC(=O)CC(c1ccc2c(c1)OCO2)c1c(O)c2ccccc2oc1=O` (stereo not given): the EC50 was greater than 200 µM and the IC50 worked out at 135 µM.
With `CN1c2ccccc2SC2C(c3ccccc3)=NOC21` (stereo not given), the EC50 is greater than 200 µM and the IC50 came out at 45.7 µM.
For `OCCN1c2ccccc2Sc2ccccc21`, the EC50 was greater than 200 µM and the IC50 was found to be 105 µM.
The matching figures for `NP(=O)(Nc1ccccc1)Nc1ccccc1`: greater than 200 µM and greater than 200 µM.
As for `Cn1cc(NC(=O)c2cc(NC(=O)c3cc(NC(=O)/C=C/C(=O)O)cn3C)cn2C)cc1C(=O)NCCC(=N)N`, the EC50 is greater than 100 µM and the concentration for half-maximal inhibition (IC50) is 89.1 µM.
The matching figures for `Nc1cnn2cnnc2c1`: greater than 200 µM and greater than 200 µM.
With `NC1=CNC(=O)C1`, the EC50 is greater than 138 µM and the IC50 was greater than 138 µM.

For orientation: EC50 means the concentration giving half of the maximal effect. The IC50 is the concentration at which inhibition is half-maximal. The low end stands for higher potency, the high end for lower potency.
